# In patent publication US9833497B2, “Human originated EGF domain proteins and use of the same” (CHENGDU SOURCEBIO LIMITED-LIABILITY COMPANY, priority 2013, dated 2017):
# Experiments:
# Assay type in all cases: cell-based
# E. coli DH5α = assay: Antibacterial activity: MIC and growth curve against E. coli DH5α in 96-well plate; settings: minimal inhibitory concentration against E. coli DH5α; 96-well plate, 5×10^5 CFU/mL, 37° C., judged after 8 h
# Procedure, shortened: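 Log-phase DH5α (OD600 about 0.5, 37° C, 185 rpm in LB) was pelleted, resuspended in fresh LB and seeded at 5×10^5 CFU/mL with recombinant protein at 50, 25 and 12.5 μg/mL (two-fold series), in triplicate. Plates were shaken at 175 rpm, 37° C, and OD600 was read every 30 min. MIC was the lowest concentration with no growth.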
# E. coli BL21 = assay: MIC against Gram-negative bacteria: E. coli BL21; settings: 5×10^5 CFU/mL
# Procedure, shortened: (§1)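 MIC, the lowest recombinant protein concentration giving no bacterial growth, found by two-fold serial dilution of human EGF-domain proteins in triplicate. Inoculum 5×10^5 CFU/mL in LB from cultures at McFarland 0.5; plates incubated at 37° C, 175 rpm shaking.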
# Pseudomonas aeruginosa = assay: MIC against Gram-negative bacteria: Pseudomonas aeruginosa; settings: 5×10^5 CFU/mL
# Procedure, shortened: as §1
# Klebsiella pneumonia = assay: MIC against Gram-negative bacteria: Klebsiella pneumonia; settings: 5×10^5 CFU/mL
# Procedure, shortened: as §1
# Enterobacter cloacae = assay: MIC against Gram-negative bacteria: Enterobacter cloacae; settings: 5×10^5 CFU/mL
# Procedure, shortened: as §1
# Aeromonas hydrophila = assay: MIC against Gram-negative bacteria: Aeromonas hydrophila; settings: 5×10^5 CFU/mL
# Procedure, shortened: as §1
# Citrobacter diversus = assay: MIC against Gram-negative bacteria: Citrobacter diversus; settings: 5×10^5 CFU/mL
# Procedure, shortened: as §1
# Moraxella catarrhalis = assay: MIC against Gram-negative bacteria: Moraxella catarrhalis; settings: 5×10^5 CFU/mL
# Procedure, shortened: as §1
# Proteus mirabilis = assay: MIC against Gram-negative bacteria: Proteus mirabilis; settings: 5×10^5 CFU/mL
# Procedure, shortened: as §1
# Proteus vulgaris = assay: MIC against Gram-negative bacteria: Proteus vulgaris; settings: 5×10^5 CFU/mL
# Procedure, shortened: as §1
# Serratia marcescens = assay: MIC against Gram-negative bacteria: Serratia marcescens; settings: 5×10^5 CFU/mL
# Procedure, shortened: as §1
# [1] = 10 h cultivation at 37° C., two-fold serial dilution
substance,measurement,setting,value
PRT704 (LLSNCQQLNCQYKCTMVRNSTRCYCEDGFEITEDGRSCK; listed as Homo sapiens),MIC,E. coli DH5α,50 µg/mL
same,MIC E. coli BL21,"E. coli BL21; 96-well plate, 37° C., 10 h",25 µg/mL
same,MIC P. aeruginosa,"Pseudomonas aeruginosa; 96-well plate, 37° C., 10 h",50 µg/mL
same,MIC K. pneumonia,"Klebsiella pneumonia; 96-well plate, 37° C., 10 h",25 µg/mL
same,MIC E. cloacae,"Enterobacter cloacae; 96-well plate, 37° C., 10 h",50 µg/mL
same,MIC A. hydrophila,"Aeromonas hydrophila; 96-well plate, 37° C., 10 h",50 µg/mL
same,MIC C. diversus,"Citrobacter diversus; 96-well plate, 37° C., 10 h",25 µg/mL
same,MIC M. catarrhalis,"Moraxella catarrhalis; 96-well plate, 37° C., 10 h",12.5 µg/mL
same,MIC P. mirabilis,"Proteus mirabilis; 96-well plate, 37° C., 10 h",50 µg/mL
same,MIC P. vulgaris,"Proteus vulgaris; 96-well plate, 37° C., 10 h",25 µg/mL
same,MIC S. marcescens,"Serratia marcescens; 96-well plate, 37° C., 10 h",12.5 µg/mL
PRT757 (RINYCALNKPGCEHECVNMEESYYCRCHRGYTLDPNGKTCS; listed as Homo sapiens),MIC,E. coli DH5α,50 µg/mL
same,MIC (μg/mL) E. coli BL21,"E. coli BL21; E. coli BL21, 10 h cultivation at 37° C.",12.5 µg/mL
same,MIC (μg/mL) P. aeruginosa,"Pseudomonas aeruginosa; P. aeruginosa, 10 h cultivation at 37° C.",50 µg/mL
same,MIC (μg/mL) K. pneumonia,"Klebsiella pneumonia; K. pneumonia, 10 h cultivation at 37° C.",12.5 µg/mL
same,MIC (μg/mL) E. cloacae,"Enterobacter cloacae; E. cloacae, 10 h cultivation at 37° C.",25 µg/mL
same,MIC (μg/mL) A. hydrophila,"Aeromonas hydrophila; A. hydrophila, 10 h cultivation at 37° C.",50 µg/mL
same,MIC (μg/mL) C. diversus,"Citrobacter diversus; C. diversus, 10 h cultivation at 37° C.",12.5 µg/mL
same,MIC (μg/mL) M. catarrhalis,"Moraxella catarrhalis; M. catarrhalis, 10 h cultivation at 37° C.",50 µg/mL
same,MIC (μg/mL) P. mirabilis,"Proteus mirabilis; P. mirabilis, 10 h cultivation at 37° C.",12.5 µg/mL
same,MIC (μg/mL) P. vulgaris,"Proteus vulgaris; P. vulgaris, 10 h cultivation at 37° C.",25 µg/mL
same,MIC (μg/mL) S. marcescens,"Serratia marcescens; S. marcescens, 10 h cultivation at 37° C.",50 µg/mL
PRT591 (CACDPHNSLSPQCNQFTGQCPCREGFGGLMCSAAAIRQCPDRTYGDVATGCRA; listed as Homo sapiens),MIC,E. coli DH5α,25 µg/mL
same,MIC against E. coli BL21,"E. coli BL21; 96-well plate, 37° C., 10 h",50 µg/mL
same,MIC against P. aeruginosa,"Pseudomonas aeruginosa; 96-well plate, 37° C., 10 h",25 µg/mL
same,MIC against K. pneumonia,"Klebsiella pneumonia; 96-well plate, 37° C., 10 h",12.5 µg/mL
same,MIC against E. cloacae,"Enterobacter cloacae; 96-well plate, 37° C., 10 h",25 µg/mL
same,MIC against A. hydrophila,"Aeromonas hydrophila; 96-well plate, 37° C., 10 h",50 µg/mL
same,MIC against C. diversus,"Citrobacter diversus; 96-well plate, 37° C., 10 h",12.5 µg/mL
same,MIC against M. catarrhalis,"Moraxella catarrhalis; 96-well plate, 37° C., 10 h",50 µg/mL
same,MIC against P. mirabilis,"Proteus mirabilis; 96-well plate, 37° C., 10 h",12.5 µg/mL
same,MIC against P. vulgaris,"Proteus vulgaris; 96-well plate, 37° C., 10 h",50 µg/mL
same,MIC against S. marcescens,"Serratia marcescens; 96-well plate, 37° C., 10 h",12.5 µg/mL
PRT1159 (TTDDQENECQHEAVCKDEINRPRCSCSLSYIGRLCV; listed as Homo sapiens),MIC,E. coli DH5α,12.5 µg/mL
same,MIC E. coli BL21,E. coli BL21; [1],50 µg/mL
same,MIC P. aeruginosa,Pseudomonas aeruginosa; [1],12.5 µg/mL
same,MIC K. pneumonia,Klebsiella pneumonia; [1],50 µg/mL
same,MIC E. cloacae,Enterobacter cloacae; [1],12.5 µg/mL
same,MIC A. hydrophila,Aeromonas hydrophila; [1],25 µg/mL
same,MIC C. diversus,Citrobacter diversus; [1],50 µg/mL
same,MIC M. catarrhalis,Moraxella catarrhalis; [1],25 µg/mL
same,MIC P. mirabilis,Proteus mirabilis; [1],12.5 µg/mL
same,MIC P. vulgaris,Proteus vulgaris; [1],25 µg/mL
same,MIC S. marcescens,Serratia marcescens; [1],12.5 µg/mL
PRT1289 (LAEPCRGLQCLHGHCQASGTKGAHCVCDPGFSGELCE; listed as Homo sapiens),MIC,E. coli DH5α,12.5 µg/mL
same,MIC against E. coli BL21,"E. coli BL21; E. coli BL21, 96-well plate, 37° C., 10 h",12.5 µg/mL
same,MIC against P. aeruginosa,"Pseudomonas aeruginosa; Pseudomonas aeruginosa, 96-well plate, 37° C., 10 h",12.5 µg/mL
same,MIC against K. pneumonia,"Klebsiella pneumonia; Klebsiella pneumonia, 96-well plate, 37° C., 10 h",12.5 µg/mL
same,MIC against E. cloacae,"Enterobacter cloacae; Enterobacter cloacae, 96-well plate, 37° C., 10 h",25 µg/mL
same,MIC against A. hydrophila,"Aeromonas hydrophila; Aeromonas hydrophila, 96-well plate, 37° C., 10 h",12.5 µg/mL
same,MIC against C. diversus,"Citrobacter diversus; Citrobacter diversus, 96-well plate, 37° C., 10 h",12.5 µg/mL
same,MIC against M. catarrhalis,"Moraxella catarrhalis; Moraxella catarrhalis, 96-well plate, 37° C., 10 h",50 µg/mL
same,MIC against P. mirabilis,"Proteus mirabilis; Proteus mirabilis, 96-well plate, 37° C., 10 h",12.5 µg/mL
same,MIC against P. vulgaris,"Proteus vulgaris; Proteus vulgaris, 96-well plate, 37° C., 10 h",50 µg/mL
same,MIC against S. marcescens,"Serratia marcescens; Serratia marcescens, 96-well plate, 37° C., 10 h",25 µg/mL
